In patent US5430058A, “Pharmaceutical compositions comprising hydroxamate derivatives for iron removal” (Yeda Research and Development Co. Ltd., priority 1993, dated 1995):

Tests used:
[1] = amino acid side chain, Tanford/Segret's scale as given by Eisenberg 1984; cited from earlier work
ferritin = test: Effect on iron in ferritin; set-up: species or system horse; details: after the same time of exposure
Description: Experimental testing of iron(III)-chelation properties RSF's were performed on human red blood cell lysates (normal and malaria parasitized), intact cells (4 hrs incubation times at 37° C.), free horse spleen ferritin (4-10 hrs at 37° C.) and ferritin-containing HEP-2 (human hepatoma) cells (4-10 hrs at 37° C.) using RSF1-ileu.

normal red cells = test: Extraction of chelatable iron, normal red cells (NRC); assay type: cell-based, human; details: Experiment 1, NRC, 12 μM, 2 hours at 37° C (untreated <0.1)
Description: l. Extraction of chelatable iron. Trophozoite stage parasites were obtained from step gradient of Percoll-3% L-alanine in phosphate buffered saline (10 mM Na-phosphate, 150 mM NaCl, pH 7.4). Cell suspensions of 100% parasitemia were adjusted to 1% hematocrit and placed in RPMI growth medium supplemented with 50 mM sucrose and 20 mM glucose. Pretreatment of cells was done with 12 μM of the indicated SF derivative or DMSO for 2 hours at 37° C. at which time the cells were washed twice in 500× volume of buffer containing 150 mM NaCl, 10 mM HEPES and 50 mM sucrose pH=7.4 Next the cells were incubated for additional 3 hours in 6.8 μM NBD-DFO and washed to remove fluorescent probe. Measurements of chelatable iron were carried out in the TCA soluble fraction of freeze thaw lysates as described by Lytton, S. D. et al., 1991 Mol. Pharmacol. 40:584-590.
Iron extractions were performed on cell suspensions treated (yes) or untreated (no) with 12 μM RSF n2-ileu for 2 hours at 37° C. Fluorescence assays of chelatable iron in non-infected (NRC) and in parasitized (IRC) red cells were carried out as described by Lytton et al., (1991) Mol. Pharmacol. 40:584.

[2] = system: human Hep2 hepatoma cells; test: Iron extraction from hepatoma cells (NBD-DFO fluorescence); assay type: cell-based; details: cells pre-exposed to chelator (80 μg/ml, 18 hour)
red cells = test: Penetration of chelator into red cells; assay type: cell-based, human
Plasmodium falciparum = test: Antimalarial activity, general comparison and statements; assay type: cell-based
Description: g. Bioassay of iron carrier antimalarial activity. The antimalarial activity was assayed by adding the compounds from concentrated stock solutions (in DMSO) to microcultures (24 wells, Costar) containing infected red cells (2.5% hematocrit and 2% parasitemia). The cultures were usually synchronized (4-7 hrs. windows) by incubation in 300 mM Ala, 10 mM TRIS-Cl in conjunction with gelatin flotation and used either at the trophozoite (1-2% parasitemia) or at the ring stage (4-6% parasitemia) of the erythrocyctic cycle. After the indicated time of incubation with drug and either previous to or after washing 3 times with 100 volumes growth medium, the cells were supplemented with 6 μCi of either [^3 H]-hypoxanthine or [^3 H]-Ileu (Amersham, England) per well and parasite growth assessed after 24-48 hours by harvesting the labelled cells onto glass-fiber filters (Tamar, Inc. Jerusalem) and counting of the radioactivity.
The antimalarial activity of the different chelators was initially evaluated on cultures of trophozoites which were exposed for 24 hours to different concentrations of chelators. Following that period, [^3 H]-hypoxanthine or [^3 H]-Ileu were added and 24 hours later the parasitemia and incorporation of label into macromolecular material was determined.

plasma = test: Pre-incubation of plasma with chelator, effect on parasite growth; assay type: cell-based, human; details: 40 fold IC50, then dialysis
Description: h. The effect of pre-incubation of red cells or plasma with drug on parasite growth. Red cell suspensions (5% hematocrit) in RPMI 1640 medium pH 7.4 (no plasma) were treated for 24-48 hrs with either 100 μg/ml of chelator or DMSO alone (<1% final concentration) in culture conditions. Chelator was removed by washing the cells 4 times with RPMI followed by 1 hour incubation at 37° C. Parasite growth was assayed after addition of gelatin enriched schizonts (>90%) as described above. […] The plasma was subsequently dialyzed for 24 hours against 800 ml 0.1% bovine serum albumin (BSA), and 10 mM glucose in phosphate buffered saline (PBS) pH 7.4, followed by an additional 24 hour dialysis against 400 ml of the same buffer and supplemented to the medium for parasite growth assays.
Plasma and uninfected red cells were separately treated with relatively high concentrations of chelators (100 μg/ml) in order to evaluate whether the site of action of the lipophilic chelators was associated with components of the plasma and/or the uninfected red cell.

SMILES: CC[C@H](C)[C@H](NC(=O)CCOCC(CC)(COCCC(=O)N[C@H](C(=O)N(C)O)[C@@H](C)CC)COCCC(=O)N[C@H](C(=O)N(C)O)[C@@H](C)CC)C(=O)N(C)O [SF1-ileu]
- Hydrophobicity [1]: 5.0
- Effect on iron in ferritin (ferritin): not substantially affecting iron in ferritin
- Chelatable iron after RSF pretreatment (normal red cells): 0.7 nmoles/10^10 cells
- Chelatable cytosolic iron [2]: demonstrably reduced
- Penetration into red cells (red cells): can easily penetrate into red cells
- Efficiency relative to DFO (Plasmodium falciparum; 24-48 hours exposure, various strains): 6-13 fold
- Speed of action relative to desferrioxamine (Plasmodium falciparum; faster acting than desferrioxamine): 20 fold
- Arrest of parasite growth (Plasmodium falciparum; infected red blood cells): arresting parasite growth irreversibly within a few hours
- Potency relative to desferrioxamine (Plasmodium falciparum; more potent than desferrioxamine): 15 fold
- Ability of plasma to support parasite growth after pre-treatment (plasma): no significant effect
